Results as given in PMC8385015, “Tumour-on-chip microfluidic platform for assessment of drug pharmacokinetics and treatment response” (Communications Biology, 2021).
“And” between values parts separate entries of the source, which are not always exact repeats. Equal values may be shown once.

Legend:
[1] = In vivo PK profile determination in mouse plasma (LC-MS/MS, population-based PK model); conditions: for In vivo drug free concentrations: SN38 after irinotecan 50 mg/kg
Method: The samples were collected at 5, 15, 40 min, and 1, 2, 4, 6, 8 and 24 h.
Whole blood was mixed 1:5 with PBS and centrifuged at 1500×g for 3 min at 4 °C, and the plasma was extracted and frozen at –80 °C.
Using this PK model, a time course of free plasma concentrations of both drugs was simulated (Table 1).
Acidified acetonitrile ([…]) was added with the internal standard, followed by centrifugation at 3000 rpm for 10 min. Supernatant ([…]) was then removed to a clean plate and dried under nitrogen. […]
Supplementary Method 8. Pharmacokinetic models parameters used for simulations
AZD156 PK model and PK parameters used for simulations

γH2AX = γH2AX immunofluorescence in SW620 spheroids, microfluidic chip; assay type: cell-based; conditions: SN38 monotherapy, day 7
Text: SN38 is a TOP1 inhibitor that that prevents relegation of the DNA strand by binding to TOP1–DNA complex and causes DNA double strand breaks (DSBs). Those DNA DSB lesions trigger activation of the ATM kinase for effective repair. Inhibition of ATM and consequent accumulation of unrepaired breaks leading to increased cell death provides the rationale for developing this combination for cancer treatment. […] Here, we tested whether different schedules lead to different activation of pharmacodynamic markers that are associated with DNA DSB damage, apoptosis and cell proliferation. The γ-H2AX associated foci accumulate in cells exposed to DBS inducing agents[18],[19]. These foci can be detected by immunostaining to determine their, size and morphology. However, spheroid imaging using a 20x objective on a CV7000 confocal microscope cannot accurately explore foci morphology, so we introduced customised ImageJ macros (described in “Methods” section, Supplementary Fig. 2 and Supplementary Method 1) to quantitate positive cells within a spheroid. The same method was applied to quantitate CC3-positive (apoptotic) cells, while normalisation by spheroid area was not required for Ki67, as this biomarker is present in all proliferating cells. […]
Supplementary Figure 2. Fluorescence image processing, per biomarker, using Fiji ImageJ custom-made macros […]

SW620 spheroids = experiment: SW620 spheroid viability (CellTiterGlo), static plate format; assay type: cell-based; conditions: 6 days
Method: In microfluidic Ibidi chip, tumour spheroids were exposed to eight different concentrations in a gradient fashion mimicking the in vivo pharmacokinetic profile and treatment schedule for both drugs. c Spheroids were imaged in situ (plate/chip) at the end of the treatment and their volumes calculated from average radius deducted from min/max Feret. d Spheroid viability was measured at the end of the treatment by CellTiterGlo assay (d). N = 6 per condition from two independent experiments. Box-plots show median (centre line); box limits are 25th to 75th percentile; whiskers represent min and max values. Statistical analysis was performed using 1-way ANOVA.
From the same experimental setup, we explored SW620 spheroid viability at 6 days for static and microfluidic setup (Fig. 2d).
Compounds were dispensed in each well using an automated HP D300 digital dispenser (Tecan, UK).
Spheroid viability assessment used a metabolic method (CellTiterGlo 3D, G9681, Promega) by measuring luminescence units expressed by individually recovered spheroids. […] CellTiterGlo vial was allowed to thaw (1 h, room temperature) and 25 µL reagent were added to each spheroid well. […] Luminescence levels were measured using a SpectraMax i3X (Molecular Devices, USA).

CCc1c2c(nc3ccc(O)cc13)-c1cc3c(c(=O)n1C2)COC(=O)[C@]3(O)CC [SN38]
In vivo drug free concentrations ([1]; mouse plasma, time 1 h): 5.5 nM | In vivo drug free concentrations ([1]; mouse plasma, time 2 h): 4.7 nM | In vivo drug free concentrations ([1]; mouse plasma, time 3 h): 4.4 nM | In vivo drug free concentrations ([1]; mouse plasma, time 4 h): 4.1 nM | In vivo drug free concentrations ([1]; mouse plasma, time 5 h): 3.6 nM | In vivo drug free concentrations ([1]; mouse plasma, time 6 h): 3.1 nM | In vivo drug free concentrations ([1]; mouse plasma, time 7 h): 2.8 nM | In vivo drug free concentrations ([1]; mouse plasma, time 8 h): 2.4 nM | In vivo drug free concentrations ([1]; mouse plasma, time 9 h): 2.1 nM | In vivo drug free concentrations ([1]; mouse plasma, time 10 h): 1.9 nM | In vivo drug free concentrations ([1]; mouse plasma, time 11 h): 1.7 nM | In vivo drug free concentrations ([1]; mouse plasma, time 12 h): 1.6 nM | In vivo drug free concentrations ([1]; mouse plasma, time 13 h): 1.5 nM | In vivo drug free concentrations ([1]; mouse plasma, time 14 h): 1.4 nM | In vivo drug free concentrations ([1]; mouse plasma, time 15 h): 1.2 nM | In vivo drug free concentrations ([1]; mouse plasma, time 16 h): 1.1 nM | In vivo drug free concentrations ([1]; mouse plasma, time 17 h): 1.1 nM | In vivo drug free concentrations ([1]; mouse plasma, time 18 h): 0.9 nM | In vivo drug free concentrations ([1]; mouse plasma, time 19 h): 0.9 nM | In vivo drug free concentrations ([1]; mouse plasma, time 20 h): 0.8 nM | In vivo drug free concentrations ([1]; mouse plasma, time 21 h): 0.7 nM | In vivo drug free concentrations ([1]; mouse plasma, time 22 h): 0.7 nM | In vivo drug free concentrations ([1]; mouse plasma, time 23 h): 0.6 nM | In vivo drug free concentrations ([1]; mouse plasma, time 24 h): 0.6 nM | in vivo average measured concentration ([1]; mouse plasma, between 2-4h from treatment onset): 4.36 nM | Cmax ([1]; read-out: maximum mouse plasma concentration (Cmax), 50 mg/kg irinotecan (SN38), 10 mg/kg AZD0156): 5.5 nM | change in γH2AX compared to the control group (γH2AX): did not observe a significant change | spheroid viability (SW620 spheroids; Static plate format, CellTiterGlo, replicates (Fig 2d raw data), unit not given): 36.02 and 31.7 and 39.52 | reduction in spheroid viability (SW620 spheroids; static, continuous exposure): ~ 60%
